Reference: PubChem BioAssay AID256 (DTP/NCI, 2004)
Several values for one entry are separate records, joined by “and”; a condition that tells them apart may be missing. Identical values can stand only once. Toxic doses and inconclusive results are not listed. The calls were made as follows: active = survival T/C of 150% or more; inactive = T/C below 125% in these data.

System: CD2F1 mice, L1210 leukemia ip, survival T/C
Assay: NCI In Vivo Anticancer Drug Screen. Data for tumor model L1210 Leukemia (intraperitoneal) in CD2F1 (CDF1) mice
Settings: higher = longer survival
Outline: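 Compound-dosed mice with transplantable tumor versus matched vehicle controls; endpoint ratio T/C reported.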

Measured: T/C

Nc1nc(F)nc2c1ncn2C1OC(COP(=O)(O)O)C(O)C1O (stereo unspecified)
inactive: endpoint: mean survival time, dose: 6.25 mg/kg/injection, schedule: Q01DX009 (ip), vehicle: saline 98 % of control | endpoint: mean survival time, dose: 12.5 mg/kg/injection, schedule: Q01DX009 (ip), vehicle: saline 104 % of control | endpoint: mean survival time, dose: 25.0 mg/kg/injection, schedule: Q01DX009 (ip), vehicle: saline 118 % of control | endpoint: mean survival time, dose: 50.0 mg/kg/injection, schedule: Q01DX009 (ip), vehicle: saline 114 % of control | endpoint: mean survival time, dose: 60.0 mg/kg/injection, schedule: Q01DX009 (ip), vehicle: saline 124 % of control | endpoint: mean survival time, dose: 200.0 mg/kg/injection, schedule: Q01DX009 (ip), vehicle: saline with Tween-80 100 % of control | endpoint: mean survival time, dose: 292.0 mg/kg/injection, schedule: Q01DX009 (ip), vehicle: saline 98 % of control | endpoint: median survival time, dose: 32.0 mg/kg/injection, schedule: Q01DX009 (ip), vehicle: saline 114 % of control and 112 % of control | endpoint: median survival time, dose: 47.0 mg/kg/injection, schedule: Q01DX009 (ip), vehicle: saline 114 % of control and 111 % of control | endpoint: median survival time, dose: 100.0 mg/kg/injection, schedule: Q01DX001 (oral), vehicle: sodium bicarbonate 101 % of control | endpoint: median survival time, dose: 100.0 mg/kg/injection, schedule: Q01DX005 (oral), vehicle: sodium bicarbonate 111 % of control | endpoint: median survival time, dose: 200.0 mg/kg/injection, schedule: Q01DX001 (oral), vehicle: sodium bicarbonate 97 % of control | endpoint: median survival time, dose: 266.0 mg/kg/injection, schedule: Q01DX001 (ip), vehicle: sodium bicarbonate 115 % of control | endpoint: median survival time, dose: 400.0 mg/kg/injection, schedule: Q01DX001 (iv), vehicle: sodium bicarbonate 120 % of control | endpoint: median survival time, dose: 400.0 mg/kg/injection, schedule: Q01DX001 (oral), vehicle: sodium bicarbonate 100 % of control | endpoint: median survival time, dose: 400.0 mg/kg/injection, schedule: Q01DX005 (iv), vehicle: sodium bicarbonate 91 % of control | endpoint: median survival time, dose: 500.0 mg/kg/injection, schedule: Q01DX009 (ip), vehicle: saline 94 % of control | endpoint: median survival time, dose: 800.0 mg/kg/injection, schedule: Q01DX001 (oral), vehicle: sodium bicarbonate 103 % of control | endpoint: median survival time, dose: 1600.0 mg/kg/injection, schedule: Q01DX001 (oral), vehicle: sodium bicarbonate 113 % of control
active: endpoint: mean survival time, dose: 88.98 mg/kg/injection, schedule: Q01DX009 (ip), vehicle: saline with Tween-80 174 % of control | endpoint: mean survival time, dose: 90.0 mg/kg/injection, schedule: Q01DX009 (ip), vehicle: saline 182 % of control | endpoint: mean survival time, dose: 100.0 mg/kg/injection, schedule: Q01DX009 (ip), vehicle: saline 171 % of control | endpoint: mean survival time, dose: 133.0 mg/kg/injection, schedule: Q01DX009 (ip), vehicle: saline 183 % of control | endpoint: mean survival time, dose: 133.4 mg/kg/injection, schedule: Q01DX009 (ip), vehicle: saline with Tween-80 244 % of control | endpoint: mean survival time, dose: 133.4 mg/kg/injection, schedule: Q01DX009 (ip), vehicle: saline 180 % of control | endpoint: mean survival time, dose: 135.0 mg/kg/injection, schedule: Q01DX009 (ip), vehicle: saline 288 % of control and 156 % of control | endpoint: mean survival time, dose: 200.0 mg/kg/injection, schedule: Q01DX009 (ip), vehicle: saline 231 % of control [middle of 4 runs] | endpoint: mean survival time, dose: 219.0 mg/kg/injection, schedule: Q01DX009 (ip), vehicle: saline 362 % of control | endpoint: median survival time, dose: 40.0 mg/kg/injection, schedule: Q03HX024 (ip), vehicle: sodium bicarbonate 167 % of control | endpoint: median survival time, dose: 56.0 mg/kg/injection, schedule: Q03HX024 (ip), vehicle: sodium bicarbonate 193 % of control | endpoint: median survival time, dose: 85.0 mg/kg/injection, schedule: Q03HX024 (ip), vehicle: sodium bicarbonate 168 % of control | endpoint: median survival time, dose: 90.0 mg/kg/injection, schedule: Q01DX009 (ip), vehicle: saline 169 % of control and 185 % of control | endpoint: median survival time, dose: 98.8 mg/kg/injection, schedule: Q01DX009 (ip), vehicle: saline 178 % of control | endpoint: median survival time, dose: 105.0 mg/kg/injection, schedule: Q01DX009 (ip), vehicle: saline 172 % of control | endpoint: median survival time, dose: 110.0 mg/kg/injection, schedule: Q03HX008 (ip), vehicle: sodium bicarbonate 163 % of control | endpoint: median survival time, dose: 111.0 mg/kg/injection, schedule: Q01DX009 (ip), vehicle: saline 159 % of control | endpoint: median survival time, dose: 118.0 mg/kg/injection, schedule: Q01DX005 (ip), vehicle: sodium bicarbonate 175 % of control | endpoint: median survival time, dose: 125.0 mg/kg/injection, schedule: Q03HX024 (ip), vehicle: sodium bicarbonate 625 % of control | endpoint: median survival time, dose: 134.0 mg/kg/injection, schedule: Q01DX009 (ip), vehicle: saline 196 % of control and 202 % of control | endpoint: median survival time, dose: 148.0 mg/kg/injection, schedule: Q01DX009 (ip), vehicle: saline 235 % of control | endpoint: median survival time, dose: 157.0 mg/kg/injection, schedule: Q01DX009 (ip), vehicle: saline 182 % of control and 283 % of control | endpoint: median survival time, dose: 167.0 mg/kg/injection, schedule: Q01DX009 (ip), vehicle: saline 207 % of control | endpoint: median survival time, dose: 170.0 mg/kg/injection, schedule: Q03HX008 (ip), vehicle: sodium bicarbonate 190 % of control | endpoint: median survival time, dose: 175.0 mg/kg/injection, schedule: Q01DX009 (ip), vehicle: saline 207 % of control | endpoint: median survival time, dose: 177.0 mg/kg/injection, schedule: Q01DX005 (ip), vehicle: sodium bicarbonate 216 % of control | endpoint: median survival time, dose: 177.0 mg/kg/injection, schedule: Q01DX005 (iv), vehicle: sodium bicarbonate 171 % of control | endpoint: median survival time, dose: 200.0 mg/kg/injection, schedule: Q01DX009 (ip), vehicle: saline 219 % of control and 198 % of control | endpoint: median survival time, dose: 200.0 mg/kg/injection, schedule: Q04DX003 (ip), vehicle: sodium bicarbonate 152 % of control | endpoint: median survival time, dose: 222.0 mg/kg/injection, schedule: Q01DX009 (ip), vehicle: saline 297 % of control | endpoint: median survival time, dose: 225.0 mg/kg/injection, schedule: Q01DX009 (ip), vehicle: saline 304 % of control | endpoint: median survival time, dose: 234.0 mg/kg/injection, schedule: Q01DX009 (ip), vehicle: saline 296 % of control | endpoint: median survival time, dose: 250.0 mg/kg/injection, schedule: Q01DX009 (ip), vehicle: saline 197 % of control and 284 % of control | endpoint: median survival time, dose: 250.0 mg/kg/injection, schedule: Q03HX008 (ip), vehicle: sodium bicarbonate 198 % of control | endpoint: median survival time, dose: 266.0 mg/kg/injection, schedule: Q01DX005 (ip), vehicle: sodium bicarbonate 222 % of control | endpoint: median survival time, dose: 266.0 mg/kg/injection, schedule: Q01DX005 (iv), vehicle: sodium bicarbonate 195 % of control | endpoint: median survival time, dose: 300.0 mg/kg/injection, schedule: Q04DX003 (ip), vehicle: sodium bicarbonate 166 % of control | endpoint: median survival time, dose: 375.0 mg/kg/injection, schedule: Q01DX009 (ip), vehicle: saline 151 % of control | endpoint: median survival time, dose: 450.0 mg/kg/injection, schedule: Q04DX003 (ip), vehicle: sodium bicarbonate 212 % of control | endpoint: median survival time, dose: 670.0 mg/kg/injection, schedule: Q04DX003 (ip), vehicle: sodium bicarbonate 222 % of control | endpoint: median survival time, dose: 800.0 mg/kg/injection, schedule: Q01DX005 (oral), vehicle: sodium bicarbonate 150 % of control | endpoint: median survival time, dose: 1600.0 mg/kg/injection, schedule: Q01DX005 (oral), vehicle: sodium bicarbonate 175 % of control
